From patent publication US8603966B2, “Amino acid-based compounds, their methods of use, and methods of screening” (The Administrators of the Tulane Educational Fund, priority 2009, dated 2013)
No end group written: not given here.

What was measured:
[1] = test system: Chinese Hamster Ovary (CHO) cells; assay: Cell penetration by laser scanning confocal fluorescence microscopy; assay type: cell-based; conditions: for Cell Penetrating Half-time: SD ±10 min
Experimental: (§1) Laser Scanning Confocal Fluorescence Microscopy: Some translocating peptides were synthesized and labeled with the fluorescent dye TAMRA on either their amino terminus (N-labeled) or on a C-terminal cysteine residue (C-labeled). Live Chinese Hamster Ovary (CHO) cells were used to assess the ability of the labeled peptides to translocate across living cell membrane into the cells without causing toxicity.
CHO cells were incubated with peptide that was labeled on a C-terminal cysteine residue with the red fluorescent dye TAMRA. Cells and labeled peptide were incubated for 10 minutes in minimal media at 37° C. Cells were then washed to remove labeled peptide from the solution. The minimal media was replaced and 1 μM NBD (7-nitrobenz-2-oxa-1,3-diazol-4-yl) labeled lyso-phosphatidylthanolamine was added to the cells to label the plasma membrane. Labeled peptide concentrations for the panels are: A) 0 μM, B) 2 μM, C) 5 μM, and D) 10 μM. The scale bar represents 50 μm.
Panels A-G of FIG. 6 show representative CFM images monitoring the translocation of a labeled peptide with SEQ ID NO. 04 (synthesized with all D-amino acids for the chiral amino acids) in 10 minute intervals. CHO cells were incubated with the TAMRA-labeled peptide in minimal media and monitored over time at 25° C. without washing. The incubation times for the panels are: A) 5 min., B) 15 min., C) 25 min., D) 35 min., E) 45 min., F) 55 min., and G) 65 min. […] The scale bar represents 50 μm.
(§2) In this experiment, the externally added labeled peptide has not been washed away so the solution itself is fluorescent due to added TAMRA-labeled peptide. The black silhouettes in Panel A show the location of cells; before labeled-peptide entry, there is no fluorescence inside the cells.
All labeled peptides tested are able to translocate across living cell membranes and carry the large polar dye molecule TAMRA with them into the cell. Cell penetration was assessed by measuring TAMRA intensity inside CHO cells during incubation with the peptides in Table 4 and comparing intensity inside the cells with the external solution. Incubations were done at either 25° C. or 37° C., at concentrations listed. The half-times for penetration were determined, as shown in Table 5; the half-times have standard deviations of ±10 min. Based on final intensities inside the cells, all labeled peptides tested have similar cell penetrating activity at concentrations tested and at the temperatures tested. Toxicity was determined using the same conditions (e.g., solution and temperature) and concentrations as the cell penetration experiments. Toxicity was assessed by imaging at least 100 cells and counting cells with altered cell morphology, loss of confluence, or loss of adherence to substrate. In some experiments, the non-membrane permeable DNA dye SYTOX green was used to assess membrane integrity. In most cases, no measurable increase in toxicity or membrane integrity over control samples was detectable; this is indicated by the <5% in Table 5.

[2] = High throughput screen: Tb3+/DPA leakage from liposomes; conditions: labeled peptide:lipid 1:300; % of Tb3+ released after 60 minutes vs Triton-X 100 solubilized control (100% leakage)
Experimental: (§3) High throughput screening: For high throughput screening, 100 mM lipid bilayer vesicles were prepared by extrusion in the presence of 50 mM Tb^3+/citrate and 10 mg/mL chymotrypsin. The external Tb^3+/citrate and chymotrypsin were removed by gel filtration. To make the screening solution, 50 μM dipicolinic acid (DPA) and 1 μM α 1-antitrypsin were added to the external medium. The lipid composition was about 90% palmitoyloleoylphostadidylcholine (POPC) and about 10% palmitoyloleoyl phostadidylglycerol (POPG).
(§4) The combinatorial labeled peptide library was screened to identify and measure properties of translocation and leakage (e.g., pore-formation). Beads from the synthesis were exposed to longwave UV to cleave the peptide from the resin. The reaction added an amine group to the labeled peptide at the site of cleavage, yielding a Gln residue. Beads were then separated into individual wells of a multiwell plate and the peptides were extracted into 5 μl of dry dimethylsulfoxide overnight. This cleaved approximately 0.75 nmol of labeled peptide from each bead, about half of the total labeled peptide on the bead. A chymotrypsin cleavage site was incorporated into the labeled peptides' design (FIG. 1) and when hydrolysis occurs the AMC fluorophore is released. The spectra of the free AMC fluorophore is red-shifted as compared to that of the peptide-AMC conjugate (FIG. 2). When a labeled peptide translocates, the chymotrypsin inside the vesicle catalyzes the hydrolysis of the peptide bond contributed by the AMC moiety (FIG. 3B). Translocation was monitored by the rate of accumulation of free AMC. In the case of leakage, interaction of the lanthanide metal terbium III (Tb^3+) with the aromatic chelator dipiccolinic acid (DPA) creates a complex that is fluorescent at low μM concentrations (FIG. 3A). By entrapping Tb^3+ and chymotrypsin inside the liposomes and then adding dipiccolinic acid and a chymotrypsin inhibitor to the external medium, a visual reporter system for translocation with and without membrane leakage was created that can detect as little as 5 pmol of labeled peptide.
(§5) To screen for solubility, the labeled peptide DMSO solution was diluted and incubated for 30 minutes before adding the screening solution. Free-AMC fluorescence was monitored at 450 nm emission (350 nm excitation) for 30 minutes and then the wells were read at 460 nm emission (280 nm excitation) for Tb^3+/DPA complex formation. Wells with the highest free AMC accumulation and/or Tb^3+/DPA fluorescence were sent to the Michigan State University Protein Core Facility for sequencing.
(§6) The screen was performed at a labeled peptide to lipid ratio of 1:300. […] In FIG. 4, the oval labeled “Leakage” indicates labeled peptides that show mostly leakage with a minimum of the relative rate of free AMC production. The oval labeled “Translocation” indicates labeled peptides that show a higher relative rate of free AMC production with a minimum of leakage. Roughly 24,000 beads were screened at 1:300 labeled peptide:lipid, a sequence coverage space of 90%. The labeled peptides indicating the highest translocation and highest % leakage were identified by Edman sequencing from the beads.
(§7) Free-AMC fluorescence was monitored at 450 nm emission (350 nm excitation) for 30 minutes and then the wells were read at 460 nm emission (280 nm excitation) for Tb^3+/DPA complex formation. Percent leakage is the % of Tb^3+ released from lipid vesicles after 60 minutes, compared to a Triton-X 100 detergent-solubilized control (100% leakage). […] Free AMC was determined in real time by monitoring the fluorescence of free AMC after vesicle addition using a BioTek Synergy II fluorescence plate reader. The two assays were performed on the same samples.

[3] = High throughput screen: translocation into liposomes (free AMC production by entrapped chymotrypsin); conditions: labeled peptide:lipid 1:300; rate divided by rate in chymotrypsin solution without inhibitor and liposomes
Experimental: as §3, §4, §5, §6, §7

[4] = test system: Chinese Hamster Ovary (CHO) cells; assay type: cell-based
From the text: as §1, §2
All labeled peptides tested are able to translocate across living cell membranes and carry the large polar dye molecule TAMRA with them into the cell. Cell penetration was assessed by measuring TAMRA intensity inside CHO cells during incubation with the peptides in Table 4 and comparing intensity inside the cells with the external solution. Incubations were done at either 25° C. or 37° C., at concentrations listed. The half-times for penetration were determined, as shown in Table 5; the half-times have standard deviations of ±10 min. […] Toxicity was determined using the same conditions (e.g., solution and temperature) and concentrations as the cell penetration experiments. […]

Arg-Arg-Ile-Leu-Leu-Gln-Leu-Leu-Arg-Gly-Gln-Phe (RRILLQLLRGQF; not fully specified (C-terminus); printed as Arg-Arg-Ile-Leu-Leu-Gln-Leu-Leu-Arg-Gly-Gln-Phe) [SEQ ID NO: 10 (C-labeled), peptide labeled with the dye TAMRA on a C-terminal cysteine]
Cell Penetrating Half-time ([1]; 25° C., 1.7-10 μM): 15 min

Arg-Arg-Ile-Leu-Leu-Gln-Leu-Leu-Leu-Gly-Gln-Phe (RRILLQLLLGQF; not fully specified (C-terminus); printed as Arg-Arg-Ile-Leu-Leu-Gln-Leu-Leu-Leu-Gly-Gln-Phe) [SEQ ID NO: 15 (C-labeled), peptide labeled with the dye TAMRA on a C-terminal cysteine]
Cell Penetrating Half-time ([1]; 37° C., 1.7-5 μM): <30 min

Arg-Lys-Gly-Leu-Leu-Gln-Leu-Leu-Leu-Gly-Gln-Phe (RKGLLQLLLGQF; not fully specified (C-terminus); printed as Arg-Lys-Gly-Leu-Leu-Gln-Leu-Leu-Leu-Gly-Gln-Phe) [SEQ ID NO: 18 (C- labeled), peptide labeled with the dye TAMRA on a C-terminal cysteine]
Cell Penetrating Half-time ([1]; 37° C., 1.7-5 μM): <30 min

PKILLFKLLGQF [SEQ ID NO: 12]
% Leakage [2]: 1.6% | Relative Rate of Free AMC Production [3]: 1.7

PKQLLRLLLGQF [SEQ ID NO: 20]
% Leakage [2]: 90% | Relative Rate of Free AMC Production [3]: 0.4

PLGYLFLLRGQF [SEQ ID NO: 05]
% Leakage [2]: 6.0% | Relative Rate of Free AMC Production [3]: 1.9

PLILLRLLRGQF [SEQ ID NO: 03]
% Leakage [2]: 1.7% | Relative Rate of Free AMC Production [3]: 2.1

PLIYPFLRLGQF [SEQ ID NO: 09]
% Leakage [2]: −0.2% | Relative Rate of Free AMC Production [3]: 1.7

PLRLLRLLRGQF [SEQ ID NO: 11]
% Leakage [2]: 5.2% | Relative Rate of Free AMC Production [3]: 2.0

PLRLRFLLRGQF [SEQ ID NO: 07]
% Leakage [2]: −4.5% | Relative Rate of Free AMC Production [3]: 1.6

PRILLRLLLGQF [SEQ ID NO: 16]
% Leakage [2]: 89% | Relative Rate of Free AMC Production [3]: 1.0

PRIYLRLLLGQF [SEQ ID NO: 14]
% Leakage [2]: 82% | Relative Rate of Free AMC Production [3]: 1.1

PRKLLQLLLGQF [SEQ ID NO: 13]
% Leakage [2]: 86% | Relative Rate of Free AMC Production [3]: 0.6

Pro-Leu-Ile-Leu-Leu-Arg-Leu-Leu-Arg-Gly-Gln-Phe (PLILLRLLRGQF; not fully specified (C-terminus); printed as Pro-Leu-Ile-Leu-Leu-Arg-Leu-Leu-Arg-Gly-Gln-Phe) [SEQ ID NO: 03 (C-labeled), peptide labeled with the dye TAMRA on a C-terminal cysteine]
Cell Penetrating Half-time ([1]; 37° C., 1.7-5 μM): <30 min

Pro-Leu-Ile-Tyr-Leu-Arg-Leu-Leu-Arg-Gly-Gln-Phe
half-time for cell entry ([1]; FIG. 6, 25° C., minimal media, without washing): 20 to 30 min | time at which cell penetration occurs ([1]; FIG. 6, 25° C., without washing): within a few minutes | toxicity (shape and coherence of the cells) [4]: toxicity is minimal

Pro-Leu-Ile-Tyr-Leu-Arg-Leu-Leu-Arg-Gly-Gln-Phe [SEQ ID NO: 04 (C-labeled)]
Cell Penetrating Half-time ([1]; 37° C., 1.7-10 μM): 20 min

Pro-Leu-Ile-Tyr-Leu-Arg-Leu-Leu-Arg-Gly-Gln-Phe [SEQ ID NO: 04]
% Leakage [2]: 2.8% | Relative Rate of Free AMC Production [3]: 2.3

RKGLLQLLLGQF [SEQ ID NO: 18]
% Leakage [2]: 92% | Relative Rate of Free AMC Production [3]: 0.3

RKILLRLLRGQF [SEQ ID NO: 02]
% Leakage [2]: −3.0% | Relative Rate of Free AMC Production [3]: 1.6

RKRLLQLLLGQF [SEQ ID NO: 21]
% Leakage [2]: 84% | Relative Rate of Free AMC Production [3]: 0.7

RLILLFRRLGQF [SEQ ID NO: 06]
% Leakage [2]: 7.2% | Relative Rate of Free AMC Production [3]: 2.1

RLILRQLLLGQF [SEQ ID NO: 19]
% Leakage [2]: 102% | Relative Rate of Free AMC Production [3]: 1.6

RLILRQLLRGQF [SEQ ID NO: 17]
% Leakage [2]: 115% | Relative Rate of Free AMC Production [3]: 1.6

RLIRLFLLRGQF [SEQ ID NO: 08]
% Leakage [2]: 5.0% | Relative Rate of Free AMC Production [3]: 2.1

RLIYLRLLRGQF [SEQ ID NO: 01]
% Leakage [2]: 24% | Relative Rate of Free AMC Production [3]: 3.4

RRILLQLLLGQF [SEQ ID NO: 15]
% Leakage [2]: 105% | Relative Rate of Free AMC Production [3]: 0.0

RRILLQLLRGQF [SEQ ID NO: 10]
% Leakage [2]: 26% | Relative Rate of Free AMC Production [3]: 2.3
